Results published in patent US10669283B2, “Compound and pharmacologically acceptable salt thereof” (MEIJI SEIKA PHARMA CO., LTD., priority 2016, dated 2020).

Test system: PDE4
Test: PDE4 inhibition, scintillation proximity assay (SPA);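 further: A below 100 nM B 100 to below 1000 nM C 1000 nM or more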
Type: biochemical
Conditions: scintillation proximity assay (SPA); evaluated as classes A, B, C; read-out: PDE4 Inhibitory Activity (concentration for the inhibition rate of 50%)
Description: The PDE4 inhibitory activity was measured using scintillation proximity assay (SPA) as follows. A sample compound dissolved in dimethyl sulfoxide was diluted 1:10 in reaction buffer solution which contained 50 mM of Tris-HCl with pH 7.4, 8.3 mM of MgCl2, 1.7 mM of EGTA, and 3 mg/mL of bovine serum albumin (BSA). Then, 10 μL of the diluted solution was added in a 96-well assay plate. Moreover, 50 μL of PDE4 diluted 1:375 in the reaction buffer solution was added, and then 40 μL of [2,8-^3H]-adenosine-3′,5′-cyclic phosphate triethylammonium salt diluted 1:1000 in the reaction buffer solution was added. The mixture was allowed to stand at room temperature for 120 minutes. Thereafter, […] of RNA binding YSi-SPA beads suspension containing ZnSO4 was added and the mixture was allowed to stand at room temperature for 15 minutes, followed by adsorption of the enzyme reaction product to the beads. After that, the radioactivity was measured using a liquid scintillation counter for a 96-well plate. The mixture without the enzyme preparation added but only the reaction buffer solution added is a blank, and the mixture with the enzyme preparation added and only dimethyl sulfoxide added instead of the sample solution is a control.

Compound | IC50
CSc1cc(-c2nccs2)c2oc(N3CC4CCCC(C3)N4)nc2c1 [Example 41, 2-(3,9-Diazabicyclo[3.3.1]nonan-3-yl)-5-(methylthio)-7-(thiazol-2-yl)benzo[d]oxazole] | < 100 nM
C[S+]([O-])c1cc(-c2nccs2)c2oc(N3CC4CCC(C3)N4)nc2c1 (centres unmarked) [Example 42, 2-(3,8-Diazabicyclo[3.2.1]octan-3-yl)-5-(methylsulfinyl)-7-(thiazol-2-yl)benzo[d]oxazole] | < 100 nM
C[S+]([O-])c1cc(-c2nccs2)c2oc(N3CC4CC(C3)N4)nc2c1 (centres unmarked) [Example 43, 2-(3,6-Diazabicyclo[3.1.1]heptan-3-yl)-5-(methylsulfinyl)-7-(thiazol-2-yl)benzo[d]oxazole] | < 100 nM
C[S+]([O-])c1cc(-c2nccs2)c2oc(N3CC4CCCC(C3)N4)nc2c1 (centres unmarked) [Example 44, 2-(3,9-Diazabicyclo[3.3.1]nonan-3-yl)-5-(methylsulfinyl)-7-(thiazol-2-yl)benzo[d]oxazole] | < 100 nM
CS(=O)(=O)c1cc(-c2nccs2)c2oc(N3CC4CCC(C3)N4)nc2c1 [Example 45, 2-(3,8-Diazabicyclo[3.2.1]octan-3-yl)-5-(methylsulfonyl)-7-(thiazol-2-yl)benzo[d]oxazole] | < 100 nM
CS(=O)(=O)c1cc(-c2nccs2)c2oc(N3CC4CC(C3)N4)nc2c1 [Example 46, 2-(3,6-Diazabicyclo[3.1.1]heptan-3-yl)-5-(methylsulfonyl)-7-(thiazol-2-yl)benzo[d]oxazole] | < 100 nM
CS(=O)(=O)c1cc(-c2nccs2)c2oc(N3CC4CCCC(C3)N4)nc2c1 [Example 47, 2-(3,9-Diazabicyclo[3.3.1]nonan-3-yl)-5-(methylsulfonyl)-7-(thiazol-2-yl)benzo[d]oxazole] | < 100 nM
CC(=O)Nc1cc(-c2nccs2)c2oc(N3CC4CCCC(C3)N4)nc2c1 [Example 48, N-(2-(3,9-diazabicyclo[3.3.1]nonan-3-yl)-7-(thiazol-2-yl)benzo[d]oxazol-5-yl)acetamide] | < 100 nM
CC(=O)Nc1cc(-c2nccs2)c2oc(N3CC4CC(C3)N4)nc2c1 [Example 49, N-(2-(3,6-diazabicyclo[3.1.1]heptan-3-yl)-7-(thiazol-2-yl)benzo[d]oxazol-5-yl)acetamide] | 100 to 1000 nM
CC(=O)Nc1cc(-c2nccs2)c2oc(N3CC4CCC(C3)N4)nc2c1 [Example 50, N-(2-(3,8-diazabicyclo[3.2.1]octan-3-yl)-7-(thiazol-2-yl)benzo[d]oxazol-5-yl)acetamide] | < 100 nM
FC(F)(F)c1cc(-c2nccs2)c2oc(N3CC4CCC(C3)N4)nc2c1 [Example 51, 2-(3,8-Diazabicyclo[3.2.1]octan-3-yl)-7-(thiazol-2-yl)-5-(trifluoromethyl)benzo[d]oxazole] | < 100 nM
FC(F)(F)c1cc(-c2nccs2)c2oc(N3CC4CC(C3)N4)nc2c1 [Example 52, 2-(3,6-Diazabicyclo[3.1.1]heptan-3-yl)-7-(thiazol-2-yl)-5-(trifluoromethyl)benzo[d]oxazole] | < 100 nM
FC(F)(F)c1cc(-c2nccs2)c2oc(N3CC4CCCC(C3)N4)nc2c1 [Example 53, 2-(3,9-Diazabicyclo[3.3.1]nonan-3-yl)-7-(thiazol-2-yl)-5-(trifluoromethyl)benzo[d]oxazole] | < 100 nM
FC(F)(F)Oc1cc(-c2nccs2)c2oc(N3CC4CCC(C3)N4)nc2c1 [Example 54, 2-(3,8-Diazabicyclo[3.2.1]octan-3-yl)-7-(thiazol-2-yl)-5-(trifluoromethoxy)benzo[d]oxazole] | < 100 nM
FC(F)(F)Oc1cc(-c2nccs2)c2oc(N3CC4CCCC(C3)N4)nc2c1 [Example 55, 2-(3,9-Diazabicyclo[3.3.1]nonan-3-yl)-7-(thiazol-2-yl)-5-(trifluoromethoxy)benzo[d]oxazole] | < 100 nM
FC(F)(F)Oc1cc(-c2nccs2)c2oc(N3CC4CC(C3)N4)nc2c1 [Example 56, 2-(3,6-Diazabicyclo[3.1.1]heptan-3-yl)-7-(thiazol-2-yl)-5-(trifluoromethoxy)benzo[d]oxazole] | < 100 nM
NS(=O)(=O)c1cc(-c2nccs2)c2oc(N3CC4CCC(C3)N4)nc2c1 [Example 57, 2-(3,8-Diazabicyclo[3.2.1]octan-3-yl)-7-(thiazol-2-yl) benzo[d]oxazole-5-sulfonamide] | < 100 nM
NS(=O)(=O)c1cc(-c2nccs2)c2oc(N3CC4CC(C3)N4)nc2c1 [Example 58, 2-(3,6-Diazabicyclo[3.1.1]heptan-3-yl)-7-(thiazol-2-yl)benzo[d]oxazole-5-sulfonamide] | < 100 nM
NS(=O)(=O)c1cc(-c2nccs2)c2oc(N3CC4CCCC(C3)N4)nc2c1 [Example 59, 2-(3,9-Diazabicyclo[3.3.1]nonan-3-yl)-7-(thiazol-2-yl) benzo[d]oxazole-5-sulfonamide] | < 100 nM

Compound | IC50
COc1cc(-c2nccs2)c2oc(N3CC4CCC(C3)N4)nc2c1 [Example 60, 2-(3,8-Diazabicyclo[3.2.1]octan-3-yl)-5-methoxy-7-(thiazol-2-yl)benzo[d]oxazole] | < 100 nM
COc1cc(-c2nccs2)c2oc(N3CC4CC(C3)N4)nc2c1 [Example 61, 2-(3,6-Diazabicyclo[3.1.1]heptan-3-yl)-5-methoxy-7-(thiazol-2-yl)benzo[d]oxazole] | < 100 nM
COc1cc(-c2nccs2)c2oc(N3CC4CCCC(C3)N4)nc2c1 [Example 62, 2-(3,9-Diazabicyclo[3.3.1]nonan-3-yl)-5-methoxy-7-(thiazol-2-yl)benzo[d]oxazole] | < 100 nM
Oc1cc(-c2nccs2)c2oc(N3CC4CCC(C3)N4)nc2c1 [Example 63, 2-(3,8-Diazabicyclo[3.2.1]octan-3-yl)-7-(thiazol-2-yl) benzo[d]oxazol-5-ol] | < 100 nM
Oc1cc(-c2nccs2)c2oc(N3CC4CC(C3)N4)nc2c1 [Example 64, 2-(3,6-Diazabicyclo[3.1.1]heptan-3-yl)-7-(thiazol-2-yl)benzo[d]oxazol-5-ol] | < 100 nM
Oc1cc(-c2nccs2)c2oc(N3CC4CCCC(C3)N4)nc2c1 [Example 65, 2-(3,9-Diazabicyclo[3.3.1]nonan-3-yl)-7-(thiazol-2-yl) benzo[d]oxazol-5-ol] | < 100 nM
FC(F)(F)COc1cc(-c2nccs2)c2oc(N3CC4CCC(C3)N4)nc2c1 [Example 66, 2-(3,8-Diazabicyclo[3.2.1]octan-3-yl)-7-(thiazol-2-yl)-5-(2,2,2-trifluoroethoxy)benzo[d]oxazole] | < 100 nM
FC(F)(F)COc1cc(-c2nccs2)c2oc(N3CC4CC(C3)N4)nc2c1 [Example 67, 2-(3,6-Diazabicyclo[3.1.1]heptan-3-yl)-7-(thiazol-2-yl)-5-(2,2,2-trifluoroethoxy)benzo[d]oxazole] | < 100 nM
CC(C)Oc1cc(-c2nccs2)c2oc(N3CC4CCC(C3)N4)nc2c1 [Example 68, 2-(3,8-Diazabicyclo[3.2.1]octan-3-yl)-5-isopropoxy-7-(thiazol-2-yl)benzo[d]oxazole] | < 100 nM
COCCOc1cc(-c2nccs2)c2oc(N3CC4CCC(C3)N4)nc2c1 [Example 69, 2-(3,8-Diazabicyclo[3.2.1]octan-3-yl)-5-(2-methoxyethoxy)-7-(thiazol-2-yl)benzo[d]oxazole] | < 100 nM
c1csc(-c2cc(OCC3COC3)cc3nc(N4CC5CCC(C4)N5)oc23)n1 [Example 70, 2-(3,8-Diazabicyclo[3.2.1]octan-3-yl)-5-(oxetan-3-ylmethoxy)-7-(thiazol-2-yl)benzo[d]oxazole] | < 100 nM
OCC(CO)COc1cc(-c2nccs2)c2oc(N3CC4CCC(C3)N4)nc2c1 [Example 71, 2-(((2-(3,8-Diazabicyclo[3.2.1]octan-3-yl)-7-(thiazol-2-yl)benzo[d]oxazol-5-yl)oxy)methyl)propane-1,3-diol] | < 100 nM
C=CCOc1cc(-c2nccs2)c2oc(N3CC4CCC(C3)N4)nc2c1 [Example 72, 5-(Allyloxy)-2-(3,8-diazabicyclo[3.2.1]octan-3-yl)-7-(thiazol-2-yl)benzo[d]oxazole] | < 100 nM
N#CCOc1cc(-c2nccs2)c2oc(N3CC4CCC(C3)N4)nc2c1 [Example 73, 2-((2-(3,8-Diazabicyclo[3.2.1]octan-3-yl)-7-(thiazol-2-yl)benzo[d]oxazol-5-yl)oxy)acetonitrile] | < 100 nM
O=C(O)COc1cc(-c2nccs2)c2oc(N3CC4CCC(C3)N4)nc2c1 [Example 74, 2-((2-(3,8-Diazabicyclo[3.2.1]octan-3-yl)-7-(thiazol-2-yl)benzo[d]oxazol-5-yl)oxy)acetic acid] | < 100 nM
COc1ccc(-c2nccs2)c2oc(N3CC4CCC(C3)N4)nc12 [Example 75, 2-(3,8-Diazabicyclo[3.2.1]octan-3-yl)-4-methoxy-7-(thiazol-2-yl)benzo[d]oxazole] | < 100 nM
COc1ccc(-c2nccs2)c2oc(N3CC4CC(C3)N4)nc12 [Example 76, 2-(3,6-Diazabicyclo[3.1.1]heptan-3-yl)-4-methoxy-7-(thiazol-2-yl)benzo[d]oxazole] | < 100 nM
COc1ccc(-c2nccs2)c2oc(N3CC4CCCC(C3)N4)nc12 [Example 77, 2-(3,9-Diazabicyclo[3.3.1]nonan-3-yl)-4-methoxy-7-(thiazol-2-yl)benzo[d]oxazole] | < 100 nM
Oc1ccc(-c2nccs2)c2oc(N3CC4CCC(C3)N4)nc12 [Example 78, 2-(3,8-Diazabicyclo[3.2.1]octan-3-yl)-7-(thiazol-2-yl) benzo[d]oxazol-4-ol] | < 100 nM
